Tests used:
[1] = target: T1, Adenosine receptor A3 (Homo sapiens, UniProt P0DMS8); format: cell membranes, CHO-K1, Membrane; details: cho-k1;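 also: radioligand binding assay with AB-MECA serving as the labeled ligand; in other assays of this panel Not Active means under 50% inhibition at 10 µM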
T1 sequence (P0DMS8 whole entry): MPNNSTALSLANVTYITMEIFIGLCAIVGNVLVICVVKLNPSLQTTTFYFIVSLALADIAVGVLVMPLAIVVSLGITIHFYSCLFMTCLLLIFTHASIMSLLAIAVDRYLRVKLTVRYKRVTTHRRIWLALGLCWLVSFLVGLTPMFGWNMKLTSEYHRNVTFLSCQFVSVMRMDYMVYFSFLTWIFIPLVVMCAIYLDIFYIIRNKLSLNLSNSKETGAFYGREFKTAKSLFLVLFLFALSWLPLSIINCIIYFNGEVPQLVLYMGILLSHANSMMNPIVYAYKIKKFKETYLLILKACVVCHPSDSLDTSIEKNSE

[2] = target: Cannabinoid receptor 1 (Homo sapiens, UniProt P21554); format: cell membranes, Membrane; details: chem-1; also: in other assays of this panel Not Active means under 50% inhibition at 10 µM
Sequence of Cannabinoid receptor 1 (P21554 whole entry): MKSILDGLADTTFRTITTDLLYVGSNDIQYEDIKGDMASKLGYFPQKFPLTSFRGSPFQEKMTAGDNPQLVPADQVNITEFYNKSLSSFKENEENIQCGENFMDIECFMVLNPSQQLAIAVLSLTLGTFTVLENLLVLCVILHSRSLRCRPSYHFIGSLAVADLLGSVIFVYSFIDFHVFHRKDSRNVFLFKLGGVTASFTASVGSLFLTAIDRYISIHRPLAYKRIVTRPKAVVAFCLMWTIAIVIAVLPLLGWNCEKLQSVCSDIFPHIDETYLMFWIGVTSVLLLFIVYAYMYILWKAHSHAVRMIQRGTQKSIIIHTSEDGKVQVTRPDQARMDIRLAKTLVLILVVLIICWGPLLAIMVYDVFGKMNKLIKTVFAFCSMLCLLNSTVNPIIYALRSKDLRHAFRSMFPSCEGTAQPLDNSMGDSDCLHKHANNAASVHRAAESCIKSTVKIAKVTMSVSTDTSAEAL

[3] = DRUGMATRIX: Calcium Channel Type L, Benzothiazepine radioligand binding (ligand: [3H] Diltiazem); format: cell membranes, Rattus norvegicus, Wistar, Brain, Membrane; details: Not Active = under 50% inhibition at 10 µM
[4] = DRUGMATRIX: Glutamate, AMPA radioligand binding (ligand: [3H] AMPA); format: cell membranes, Rattus norvegicus, Wistar, Cerebral cortex, Membrane; details: Not Active = under 50% inhibition at 10 µM
[5] = DRUGMATRIX: Calcium Channel Type L, Phenylalkylamine radioligand binding (ligand: [3H] (-)-Desmethoxyverapamil (D-888)); format: cell membranes, Rattus norvegicus, Wistar, Brain, Membrane; details: Not Active = under 50% inhibition at 10 µM
[6] = target: Mitogen-activated protein kinase 14 (Homo sapiens, UniProt Q16539); parameters: species or system Escherichia coli;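 also: inhibition of p38alpha enzyme activity in a biochemical kinase assay, with myelin basic protein serving as substrate; in other assays of this panel Not Active means under 50% inhibition at 10 µM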
Sequence of Mitogen-activated protein kinase 14 (Q16539 whole entry): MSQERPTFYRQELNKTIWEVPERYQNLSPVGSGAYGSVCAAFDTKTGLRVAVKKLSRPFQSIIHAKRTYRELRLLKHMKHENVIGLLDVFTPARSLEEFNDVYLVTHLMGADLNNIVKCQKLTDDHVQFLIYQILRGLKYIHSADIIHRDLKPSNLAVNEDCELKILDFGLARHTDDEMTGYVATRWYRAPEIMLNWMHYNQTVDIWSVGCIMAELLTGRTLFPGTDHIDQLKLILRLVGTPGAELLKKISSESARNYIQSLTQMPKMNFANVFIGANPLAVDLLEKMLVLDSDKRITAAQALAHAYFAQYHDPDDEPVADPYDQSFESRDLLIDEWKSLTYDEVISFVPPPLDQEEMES

Cc1cccc(Nc2ccccc2C(=O)O)c1C [MEFENAMIC ACID]
Not Active: IC50 [1] | IC50 [2] | IC50 [3] | Ki [3] | IC50 [4] | Ki [4] | IC50 [5] | Ki [5] | IC50 [6]

CC(=O)O[C@]1(C(C)=O)CC[C@H]2[C@@H]3C=C(C)C4=CC(=O)CC[C@]4(C)[C@H]3CC[C@@]21C [MEGESTROL ACETATE]
Not Active: IC50 [1] | IC50 [2] | IC50 [3] | Ki [3] | IC50 [4] | Ki [4] | IC50 [5] | Ki [5] | IC50 [6]

COc1ccccc1OCC(O)COC(N)=O (stereo not given) [METHOCARBAMOL]
Not Active: IC50 [1] | IC50 [2] | IC50 [3] | Ki [3] | IC50 [4] | Ki [4] | IC50 [5] | Ki [5] | IC50 [6]

CN(Cc1cnc2nc(N)nc(N)c2n1)c1ccc(C(=O)N[C@@H](CCC(=O)O)C(=O)O)cc1 [METHOTREXATE]
Not Active: IC50 [1] | IC50 [2] | IC50 [3] | Ki [3] | IC50 [4] | Ki [4] | IC50 [5] | Ki [5] | IC50 [6]

COC(=O)c1ccccc1O [METHYL SALICYLATE]
Not Active: IC50 [1] | IC50 [2] | IC50 [3] | Ki [3] | IC50 [4] | Ki [4] | IC50 [5] | Ki [5] | IC50 [6]

COc1ccc2cc(CCC(C)=O)ccc2c1 [NABUMETONE]
Not Active: IC50 [1] | IC50 [2] | IC50 [3] | Ki [3] | IC50 [4] | Ki [4] | IC50 [5] | Ki [5] | IC50 [6]

O=C(O)c1cccnc1 [NIACIN]
Not Active: IC50 [1] | IC50 [2] | IC50 [3] | Ki [3] | IC50 [4] | Ki [4] | IC50 [5] | Ki [5] | IC50 [6]

CNC(=C[N+](=O)[O-])NCCSCc1csc(CN(C)C)n1 [NIZATIDINE]
Not Active: IC50 [1] | IC50 [2] | IC50 [3] | Ki [3] | IC50 [4] | Ki [4] | IC50 [5] | Ki [5] | IC50 [6]

C[C@]12C/C(=C/O)C(=O)C[C@@H]1CC[C@@H]1[C@@H]2CC[C@@]2(C)[C@H]1CC[C@]2(C)O [OXYMETHOLONE]
Not Active: IC50 [1] | IC50 [2] | IC50 [3] | Ki [3] | IC50 [4] | Ki [4] | IC50 [5] | Ki [5] | IC50 [6]

CC(C)(CO)C(O)C(=O)NCCCO (stereo not given) [PANTHENOL]
Not Active: IC50 [1] | IC50 [2] | IC50 [3] | Ki [3] | IC50 [4] | Ki [4] | IC50 [5] | Ki [5] | IC50 [6]

COc1ccc(Cc2nccc3cc(OC)c(OC)cc23)cc1OC [PAPAVERINE]
Not Active: IC50 [1] | IC50 [2] | IC50 [3] | Ki [3] | IC50 [4] | Ki [4] | IC50 [5] | Ki [5] | IC50 [6]

OCCN1CCN(CCCN2c3ccccc3Sc3ccc(Cl)cc32)CC1 [PERPHENAZINE]
Not Active: IC50 [1] | IC50 [2] | IC50 [3] | Ki [3] | IC50 [4] | Ki [4] | IC50 [5] | Ki [5] | IC50 [6]

CCCCC1C(=O)N(c2ccccc2)N(c2ccccc2)C1=O [PHENYLBUTAZONE]
Not Active: IC50 [1] | IC50 [2] | IC50 [3] | Ki [3] | IC50 [4] | Ki [4] | IC50 [5] | Ki [5] | IC50 [6]

Cc1cccc(Nc2cc(Cl)nc(SCC(=O)O)n2)c1C [PIRINIXIC ACID]
Not Active: IC50 [1] | IC50 [2] | IC50 [3] | Ki [3] | IC50 [4] | Ki [4] | IC50 [5] | Ki [5] | IC50 [6]

CC[C@H](C)C(=O)O[C@H]1C[C@H](O)C=C2C=C[C@H](C)[C@H](CC[C@@H](O)C[C@@H](O)CC(=O)O)[C@H]21 [PRAVASTATIN]
Not Active: IC50 [1] | IC50 [2] | IC50 [3] | Ki [3] | IC50 [4] | Ki [4] | IC50 [5] | Ki [5] | IC50 [6]

CC(C)(Sc1cc(C(C)(C)C)c(O)c(C(C)(C)C)c1)Sc1cc(C(C)(C)C)c(O)c(C(C)(C)C)c1 [PROBUCOL]
Not Active: IC50 [1] | IC50 [2] | IC50 [3] | Ki [3] | IC50 [4] | Ki [4] | IC50 [5] | Ki [5] | IC50 [6]

COBALT(II) ACETYLACETONATE
Not Active: IC50 [1] | Ki [1] | IC50 [2] | Ki [2] | IC50 [3] | Ki [3] | IC50 [4] | Ki [4] | IC50 [5] | Ki [5] | IC50 [6] | Ki [6]

INSULIN HUMAN
Not Active: IC50 [1] | Ki [1] | IC50 [2] | Ki [2] | IC50 [3] | Ki [3] | IC50 [4] | Ki [4] | IC50 [5] | Ki [5] | IC50 [6] | Ki [6]

POLYVINYL ALCOHOL
Not Active: IC50 [1] | Ki [1] | IC50 [2] | Ki [2] | IC50 [3] | Ki [3] | IC50 [4] | Ki [4] | IC50 [5] | Ki [5] | IC50 [6] | Ki [6]
